Laboratory results taken from patent US5952335A, “Fused polycyclic heterocycle derivatives” (Eisai Co., Ltd., priority 1995, dated 1999).
Where a name gives a salt, the structure may show the parent alone. Read-outs that look alike come from different tables or passages of the source.

How the values were obtained:
[1] = Drugs Fut., 17, 832 (1992), cited from earlier work
[2] = test system: MX-1 (Human Mammary Cancer); assay: in vivo Antitumor Test on MX-1 (Human Mammary Cancer) transplanted in nude mice; conditions: Mus musculus, ip, 528 h, i.p.; for responders at 25 mg/kg / inhibition in vivo at 25 mg/kg: 25 mg/kg/day
Description: MX-1 tumor pieces (about 1 mm^3) were subcutaneously transplanted into the side part of each nude mouse (BALB/C.nu/nu, 6 to 7 weeks, female). A compound of the present invention was dissolved in a 5% solution of glucose. When the tumor volume reached 50 mm^3 (on the about 10th day after the transplantation), the solution of the compound was intraperitoneally administered to the animals once a day in accordance with each schedule. On the other hand, a 5% solution of glucose was administered to the control group. The control group had 10 animals, while each test group had 5 animals. On the 22nd day after the transplantation, tumors were taken out and weighed. The tumor multiplication inhibitory ratio of each test group to the control group was determined in accordance with the following formula: [formula] wherein T means the average tumor weight of the test group; and C means the average tumor weight of the control group.

P388 cells = assay: in vitro Antitumor Test on P388 Cells (Mouse Leukemic Cells), MTT, 3 days; format: cell-based; conditions: 72 h, 3 days incubation
Description: P388 cells suspended in RPMI1640 medium (manufactured by Sanko Junyaku) containing 10% of fetal calf serum, (100 U/ml) of penicillin, 100 μg/ml of streptomycin, 5×10^-5 M of mercaptoethanol and 1 mM of sodium pyruvate were pipetted into a 96-well U-bottomed microplate at a ratio of 1.25×10^3 cells (0.1 ml) per well and incubated in a incubator containing 5% of carbon dioxide at 37° C. for a day. A compound of the present invention was dissolved in dimethyl sulfoxide to give a concentration of 10^-2 M and then diluted with the 10% fetal calf serum-containing RPMI1640 culture medium to give a concentration of 10^-4 or 10^-5 M. By taking this concentration as the maximal level, threefold serial dilution was effected with the use of the 10% fetal calf serum-containing RPMI1640 culture medium. Then these dilutions were added to the P388 incubation plate as described above at a ratio of 0.1 ml per well followed by incubation in an incubator containing 5% of carbon dioxide at 37° C. for 3 days. After the completion of the incubation, 0.05 ml/well of a 3.3 mg/ml solution of MTT [3-(4,5-dimethylthiazol-2-yl)-2,5-diphenyltetrazolium bromide] was added thereto and the incubation was continued for additional 2 hours. The microplate was centrifuged and the supernatant was aspirated off from each well. Then the formazan thus formed was dissolved in 0.1 ml of dimethyl sulfoxide and the absorbance thereof at 540 nm measured with a microplate reader was taken as an indication of the viable cell count. In accordance with the following formula, the inhibitory ratio was calculated and the 50% inhibitory concentration (IC50) of the test compound was determined: [formula] wherein T means the absorbance of a well containing the test compound; and C means the absorbance of a well containing no test compound.

[3] = test system: M5076 (Mouse Reticulum Cell Sarcoma); assay: in vivo Antitumor Test on M5076 (Mouse Reticulum Cell Sarcoma) transplanted in BDF1 mice; conditions: M5076, ip, 504 h, i.p.; for survival rate on day 21 at 25 mg/kg / inhibition in vivo at 25 mg/kg: 25 mg/kg/day, d9 after transplantation
Description: M5076 cells (1×10^6 /animal) were subcutaneously transplanted into the side part of each BDF1 mouse (aged 6 to 7 weeks, female). A compound of the present invention was dissolved in a 5% solution of glucose. From the next day of the transplantation, the solution of the compound was intraperitoneally administered to the animals once a day in accordance with each schedule. On the other hand, a 5% solution of glucose was administered to the control group. The control group had 10 animals, while each test group had 5 animals.
On the 21st day after the transplantation, tumors were taken out and weighed. The tumor multiplication inhibitory ratio of each test group to the control group was determined in accordance with the following formula: [formula] wherein T means the average tumor weight of the test group; and C means the average tumor weight of the control group.

[4] = cited from earlier work
[5] = q7d × 3, read-out: Survival rate on the judgement day (22th day)
[6] = q7d × 3, tumor weight day 22, read-out: Proliferation inhibitory ratio (%)
[7] = Farmaco, 47, 1035 (1992), J. Med. Chem., 37, 593 (1994)
[8] = read-out: Survival rate on the judgement day (21th day)
[9] = tumor weight day 21, read-out: Proliferation inhibitory ratio (%)

For CN(C)CCN1C(=O)c2cccc3cc(N)cc(c23)C1=O [amonafide, 5-amino-2-[2-(dimethylamino)ethyl]-1H-benz[de]isoquinoline-1,3(2H)-dione], the “efficacy in clinical tests” value [1] is given as “poor efficacy in clinical tests” and the bone marrow toxicity ([1]; clinical tests) is given as “strong bone marrow toxicity”.
In the case of CN(C)CCn1c(=O)c2cccc3c4c5c(ccc4n(c1=O)c23)C(=O)CO5 [Example 8, 8-[2-(Dimethylamino)ethyl]-7H-furo[3,2-c]pyrimido[5,6,1-jk]carbazole-3,7,9(2H,8H)-trione hydrochloride], the responders at 25 mg/kg [2, 5] is reported as 100%, the inhibition in vivo at 25 mg/kg [2, 6] is reported as 94% and the IC50 (P388 cells) is reported as 0.34 µM. It also gave a survival rate on day 21 at 30 mg/kg ([3]; 30 mg/kg/day, d1,8,15 after transplantation, read-out: Survival rate on the judgement day (21th day)) of 100% and an inhibition in vivo at 30 mg/kg ([3]; 30 mg/kg/day, d1,8,15 after transplantation, tumor weight day 21, read-out: Proliferation inhibitory ratio (%)) of 99.9%.
For CN(C)CCn1c(=O)c2cccc3c(=O)c4ccccc4n(c1=O)c32 [2-[2-(dimethylamino)ethyl]pyrimid[5,6,1-de]acridine-1,3,7-trione], the “antitumor activity in preclinical tests” value [4, 7] is listed as “only a weak antitumor activity in preclinical tests”.
Work on CN(C)CCn1c(=O)c2cccc3c4c5ccccc5ccc4n(c1=O)c23 [Example 1, 5-[2-(Dimethylamino)ethyl]-4H-benzo[c]pyrimido[5,6,1-jk]carbazole-4,6(5H)-dione hydrochloride] yielded a responders at 25 mg/kg ([2]; q4d × 4, read-out: Survival rate on the judgement day (22th day)) of 100%, an inhibition in vivo at 25 mg/kg ([2]; q4d × 4, tumor weight day 22, read-out: Proliferation inhibitory ratio (%)) of 48% and an IC50 (P388 cells) of 0.29 µM. It also gave a survival rate on day 21 at 50 mg/kg ([3]; 50 mg/kg/day, d1,2,3,4 after transplantation, read-out: Survival rate on the judgement day (21th day)) of 100% and an inhibition in vivo at 50 mg/kg ([3]; 50 mg/kg/day, d1,2,3,4 after transplantation, tumor weight day 21, read-out: Proliferation inhibitory ratio (%)) of 95.2%.
CC(O)c1ccc2c(ccc3c2c2cccc4c(=O)n(CCN(C)C)c(=O)n3c42)c1 (centres unmarked) [Example 3, 5-[2-(Dimethylamino)ethyl]-11-(1-hydroxyethyl)-4H-benzo[c]pyrimido[5,6,1-jk]carbazole-4,6(5H)-dione hydrochloride] showed a responders at 20 mg/kg ([2]; 20 mg/kg/day, q7d × 3, read-out: Survival rate on the judgement day (22th day)) of 100%, an inhibition in vivo at 20 mg/kg ([2]; 20 mg/kg/day, q7d × 3, tumor weight day 22, read-out: Proliferation inhibitory ratio (%)) of 55.7% and an IC50 (P388 cells) of 0.026 µM. It also gave a survival rate on day 21 at 25 mg/kg [3, 8] of 100% and an inhibition in vivo at 25 mg/kg [3, 9] of 90%.
In the case of CN(C)CCN1C(=O)c2cccc3cc4ccccc4c(c23)C1=O [azonafide, 2-[2'-(dimethylamino)ethyl]-1,2-dihydro-3H-dibenz(deh)-isoquinoline-1,3-dione], the “antitumor activity in preclinical tests” value ([4]; compared with amonafide, WO9200281) is given as “enhance the antitumor activity in preclinical tests”.
In the case of “2,3-dihydro-2-[2-(dimethylamino)ethyl]-1H,7H-naphthylidino[3,2,1-ij]quinazoline-1,3,7(2H)-trione”, the “antitumor activity in preclinical tests” value [4, 7] is given as “only a weak antitumor activity in preclinical tests”.
CN(C)CCn1c(=O)c2cccc3c4c5c(ccc4n(c1=O)c23)C(=O)CCC5 [Example 4, 12,13-Dihydro-5-[2-(dimethylamino)ethyl]-4H-benzo[c]pyrimido[5,6,1-jk]carbazole-4,6,10(5H,11H)-trione hydrochloride] showed a responders at 15 mg/kg ([2]; 15 mg/kg/day, q7d × 3, read-out: Survival rate on the judgement day (22th day)) of 100%, an inhibition in vivo at 15 mg/kg ([2]; 15 mg/kg/day, q7d × 3, tumor weight day 22, read-out: Proliferation inhibitory ratio (%)) of 98.4% and an IC50 (P388 cells) of 0.03 µM. It also gave a survival rate on day 21 at 12.5 mg/kg ([3]; 12.5 mg/kg/day, d1,8,15 after transplantation, read-out: Survival rate on the judgement day (21th day)) of 100%, an inhibition in vivo at 12.5 mg/kg ([3]; 12.5 mg/kg/day, d1,8,15 after transplantation, tumor weight day 21, read-out: Proliferation inhibitory ratio (%)) of 100% and a survival rate on day 21 at 25 mg/kg [3, 8] of 100%. The inhibition in vivo at 25 mg/kg [3, 9] was 89.2%.
With CC(=O)c1ccc2c(ccc3c2c2cccc4c(=O)n(CCN(C)C)c(=O)n3c42)c1 [Example 2, 11-Acetyl-5-[2-(dimethylamino)ethyl]-4H-benzo[c]pyrimido[5,6,1-jk]carbazole-4,6(5H)-dione hydrochloride] the responders at 25 mg/kg [2, 5] was 100%, the inhibition in vivo at 25 mg/kg [2, 6] was 63.3% and the IC50 (P388 cells) was 0.07 µM. It also gave a survival rate on day 21 at 25 mg/kg [3, 8] of 100% and an inhibition in vivo at 25 mg/kg [3, 9] of 91.4%.
